Experimental findings from PubChem BioAssay AID328 (DTP/NCI, 2004) are described below.

For the test, the system named is BDF1 mice, P388 leukemia ip, median survival T/C. Kind of test: NCI In Vivo Anticancer Drug Screen. Data for tumor model P388 Leukemia (intraperitoneal) in B6D2F1 (BDF1) mice. The note with it: endpoint: median survival time, higher = longer survival. The essentials: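 T/C = treated-group survival ÷ vehicle-control survival; tumour transplanted into mice before dosing.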

The mark [1] stands for this setting: dose: 25.0 mg/kg/injection, schedule: Q01DX009 (ip), vehicle: saline with Tween-80.
The mark [2] stands for this setting: dose: 50.0 mg/kg/injection, schedule: Q01DX009 (ip), vehicle: saline with Tween-80.
[3] abbreviates: dose: 100.0 mg/kg/injection, schedule: Q01DX001 (ip), vehicle: saline with Tween-80.
Where [4] appears, read: dose: 100.0 mg/kg/injection, schedule: Q01DX009 (ip), vehicle: saline with Tween-80.
Where [5] appears, read: dose: 100.0 mg/kg/injection, schedule: Q04DX003 (ip), vehicle: saline with Tween-80.
Where [6] appears, read: dose: 200.0 mg/kg/injection, schedule: Q01DX001 (ip), vehicle: saline with Tween-80.
Setting [7] is: dose: 200.0 mg/kg/injection, schedule: Q04DX003 (ip), vehicle: saline with Tween-80.
The mark [8] stands for this setting: dose: 400.0 mg/kg/injection, schedule: Q04DX003 (ip), vehicle: saline with Tween-80.
[9] abbreviates: dose: 12.5 mg/kg/injection, schedule: Q01DX009 (ip), vehicle: saline with Tween-80.
The mark [10] stands for this setting: dose: 25.0 mg/kg/injection, schedule: Q01DX009 (ip), vehicle: Klucel (hydroxypropylcellulose) (HPC).
Setting [11] is: dose: 50.0 mg/kg/injection, schedule: Q01DX009 (ip), vehicle: Klucel (hydroxypropylcellulose) (HPC).
The mark [12] stands for this setting: dose: 400.0 mg/kg/injection, schedule: Q01DX001 (ip), vehicle: saline with Tween-80.
Setting [13] is: dose: 25.0 mg/kg/injection, schedule: Q04DX003 (ip), vehicle: saline with Tween-80.

SMILES strings stand for the structures. Where “and” joins values, the source holds several entries; their conditions need not be identical. Identical values can stand only once. Toxic doses and inconclusive results are not listed.

In the case of `CC1=Nc2ccccc2N=C(C)C1`, the T/C under setting [1] is 100 % of control; the T/C (dose: 50.0 mg/kg/injection, schedule: Q01DX001 (ip), vehicle: saline with Tween-80) was 100 % of control; the T/C under setting [2] was 90 % of control; the T/C under setting [3] is 104 % of control; the T/C under setting [4] is 109 % of control; the T/C under setting [5] was 100 % of control. Besides, the T/C is 100 % of control (dose: 150.0 mg/kg/injection, schedule: Q01DX009 (ip), vehicle: saline with Tween-80); 100 % of control under setting [6]; 100 % of control under setting [7].

Turning to `OC(Cc1nc(-c2ccccc2)c(-c2ccccc2)s1)(C(F)(F)F)C(F)(F)F`, the T/C under setting [5] was 100 % of control, the T/C under setting [7] is 104 % of control and the T/C under setting [8] was 100 % of control.

Regarding `OC(Cc1cccnc1)(c1ccccc1)c1ccc(Cl)cc1` (stereo unspecified), the T/C is, setting by setting: under setting [2], 105 % of control; under setting [4], 100 % of control; (dose: 200.0 mg/kg/injection, schedule: Q01DX009 (ip), vehicle: saline with Tween-80) 96 % of control.

For the compound `CN=NNCc1ccccc1`, the T/C is 117 % of control (dose: 12.5 mg/kg/injection, schedule: Q01DX005 (ip), vehicle: saline) and 86 % of control (dose: 25.0 mg/kg/injection, schedule: Q01DX005 (ip), vehicle: saline).

As to `CSc1ccc(N=C=C(c2ccccc2)c2ccccc2)cc1`, the T/C runs as follows: (dose: 6.25 mg/kg/injection, schedule: Q01DX009 (ip), vehicle: saline with Tween-80) 95 % of control; under setting [9], 90 % of control; under setting [1], 90 % of control.

As for `O=[N+]([O-])[O-].OCCNCCNCC[OH2+].OCCNCCNCC[OH2+].[Cu+2]`, the T/C is 97 % of control (dose: 6.25 mg/kg/injection, schedule: Q01DX009 (ip), vehicle: saline); 100 % of control (dose: 12.5 mg/kg/injection, schedule: Q01DX009 (ip), vehicle: saline); 88 % of control (dose: 25.0 mg/kg/injection, schedule: Q01DX009 (ip), vehicle: saline).

Consider `Cc1ccc(Cc2c(C=O)nc(N)[nH]c2=O)c2ccccc12`, for which the T/C is, setting by setting: under setting [9], 112 % of control; under setting [1], 96 % of control; under setting [2], 102 % of control; (dose: 50.0 mg/kg/injection, schedule: Q01DX009 (ip), vehicle: suspension in saline) 97 % of control; (dose: 100.0 mg/kg/injection, schedule: Q01DX009 (ip), vehicle: suspension in saline) 94 % of control; (dose: 200.0 mg/kg/injection, schedule: Q01DX009 (ip), vehicle: suspension in saline) 106 % of control.

Turning to `CCOC(=O)N1C=Cn2c(cnc2C)C1OCC` (stereo unspecified), the T/C was 102 % of control (dose: 100.0 mg/kg/injection, schedule: Q04DX003 (ip), vehicle: saline); 112 % of control (dose: 200.0 mg/kg/injection, schedule: Q04DX003 (ip), vehicle: saline); 116 % of control (dose: 400.0 mg/kg/injection, schedule: Q04DX003 (ip), vehicle: saline).

On to `NC(C/[N+]([O-])=N/O)C(=O)O` (stereo unspecified), for which the T/C by setting is: (dose: 15.6 mg/kg/injection, schedule: Q04DX003 (ip), vehicle: saline) 118 % of control; (dose: 15.6 mg/kg/injection, schedule: Q04DX003 (ip), vehicle: water) 118 % of control; (dose: 25.0 mg/kg/injection, schedule: Q01DX010 (ip), vehicle: other) 150 % of control; (dose: 25.0 mg/kg/injection, schedule: Q01DX010 (ip), vehicle: saline) 122 % of control; (dose: 31.3 mg/kg/injection, schedule: Q04DX003 (ip), vehicle: saline) 122 % of control; (dose: 50.0 mg/kg/injection, schedule: Q01DX010 (ip), vehicle: other) 150 % of control. For the same compound, the T/C reads like this: (dose: 100.0 mg/kg/injection, schedule: Q01DX010 (ip), vehicle: other) 165 % of control; (dose: 125.0 mg/kg/injection, schedule: Q04DX003 (ip), vehicle: water) 168 % of control; (dose: 173.0 mg/kg/injection, schedule: Q04DX003 (ip), vehicle: sodium bicarbonate) 161 % of control and 171 % of control; (dose: 200.0 mg/kg/injection, schedule: Q01DX010 (ip), vehicle: saline) 100 % of control; (dose: 250.0 mg/kg/injection, schedule: Q04DX003 (ip), vehicle: saline) 172 % of control; (dose: 250.0 mg/kg/injection, schedule: Q04DX003 (ip), vehicle: water) 181 % of control. For the same compound, the T/C reads like this: (dose: 288.0 mg/kg/injection, schedule: Q04DX003 (ip), vehicle: sodium bicarbonate) 161 % of control and 172 % of control; (dose: 480.0 mg/kg/injection, schedule: Q04DX003 (ip), vehicle: sodium bicarbonate) 190 % of control and 192 % of control; (dose: 500.0 mg/kg/injection, schedule: Q04DX003 (ip), vehicle: saline) 181 % of control; (dose: 500.0 mg/kg/injection, schedule: Q04DX003 (ip), vehicle: water) 177 % of control; (dose: 800.0 mg/kg/injection, schedule: Q04DX003 (ip), vehicle: sodium bicarbonate) 116 % of control.

On to `COc1ccc(-c2nc3c(=O)n(C)c(=O)n(C)c3nc2-c2ccc(OC)cc2)cc1`, for which the T/C runs as follows: (dose: 100.0 mg/kg/injection, schedule: Q04DX002 (ip), vehicle: saline with Tween-80) 104 % of control; (dose: 200.0 mg/kg/injection, schedule: Q04DX002 (ip), vehicle: saline with Tween-80) 97 % of control; (dose: 400.0 mg/kg/injection, schedule: Q04DX002 (ip), vehicle: saline with Tween-80) 97 % of control.

For the compound `C/C(=N/N=C(N)N)c1ccc(NC(=O)Nc2ccc(/C(C)=N/N=C(N)N)cc2)cc1`, the T/C reads like this: (dose: 66.0 mg/kg/injection, schedule: Q04DX003 (ip), vehicle: saline with Tween-80) 154 % of control; under setting [4], 90 % of control; under setting [5], 150 % of control; (dose: 150.0 mg/kg/injection, schedule: Q04DX003 (ip), vehicle: saline with Tween-80) 159 % of control.

`COC(=O)c1cc(C)c(Br)c(OC)c1`: the T/C (dose: 12.0 mg/kg/injection, schedule: Q01DX009 (ip), vehicle: Klucel (hydroxypropylcellulose) (HPC)) is 95 % of control; the T/C under setting [10] is 90 % of control; the T/C under setting [11] is 90 % of control.

Consider `Cc1ccc(C)c(NC(=O)c2ccc(Cl)cc2)c1`, for which the T/C is 104 % of control under setting [3], 104 % of control under setting [6] and 100 % of control under setting [12].

Take `COC(=O)/C=C1\C(C(=O)OC)=Cc2ccccc2N1C`: the T/C was 100 % of control under setting [9]; 100 % of control under setting [1]; 104 % of control under setting [13]; 105 % of control under setting [2]; 100 % of control (dose: 50.0 mg/kg/injection, schedule: Q04DX003 (ip), vehicle: saline with Tween-80); 91 % of control under setting [4]. Further, the T/C under setting [5] is 87 % of control and 90 % of control; the T/C under setting [7] was 87 % of control.

Turning to `NC(=O)C1=NNc2ccccc2C(=O)N1c1ccccc1`, the T/C is, setting by setting: under setting [5], 108 % of control; under setting [7], 113 % of control; under setting [8], 103 % of control.

With `O/N=C\c1c(O)ccc2ccccc12`, the T/C reads like this: under setting [3], 106 % of control; under setting [6], 105 % of control; under setting [12], 106 % of control.

Regarding `Cc1ccc(C(=O)[O][Hg][CH2]C2COC([CH2][Hg][O]C(=O)c3ccc(C)cc3)CO2)cc1` (stereo unspecified), the T/C runs as follows: (dose: 2.25 mg/kg/injection, schedule: Q01DX009 (ip), vehicle: saline with Tween-80) 90 % of control; (dose: 6.25 mg/kg/injection, schedule: Q01DX009 (ip), vehicle: saline sonified) 110 % of control; (dose: 6.25 mg/kg/injection, schedule: Q04DX003 (ip), vehicle: saline with Tween-80) 107 % of control; (dose: 12.5 mg/kg/injection, schedule: Q04DX003 (ip), vehicle: saline with Tween-80) 107 % of control; under setting [10], 109 % of control; (dose: 25.0 mg/kg/injection, schedule: Q01DX009 (ip), vehicle: saline sonified) 150 % of control. The T/C was 103 % of control under setting [13]; 109 % of control under setting [11]; 86 % of control (dose: 100.0 mg/kg/injection, schedule: Q01DX009 (ip), vehicle: Klucel (hydroxypropylcellulose) (HPC)); 109 % of control (dose: 225.0 mg/kg/injection, schedule: Q04DX003 (ip), vehicle: Klucel (hydroxypropylcellulose) (HPC)).
